Experimental data from patent US20060189530A1 (Bayer Corporation, priority 1996, published 2006).
Values joined by “and” are separate entries in the source; they are usually repeats but may differ in a detail not shown here. Equal entries are not always repeated. Ends that are not written are not given here.

Tests used:
human NPY Y5 receptor [1] = target: T1, human NPY Y5 receptor (Homo sapiens, UniProt Q15761); experiment: [125I]PYY competition binding, human Y5 clone transiently expressed in COS-7 membranes; conditions: transient COS-7 membranes, ± SEM, read-out: NPY Y5 binding affinity Ki, HUMAN Clone
T1 construct: containing the full length open reading frame encoding the receptor; expressed in transfected cells
T1 sequence (Q15761 1-445): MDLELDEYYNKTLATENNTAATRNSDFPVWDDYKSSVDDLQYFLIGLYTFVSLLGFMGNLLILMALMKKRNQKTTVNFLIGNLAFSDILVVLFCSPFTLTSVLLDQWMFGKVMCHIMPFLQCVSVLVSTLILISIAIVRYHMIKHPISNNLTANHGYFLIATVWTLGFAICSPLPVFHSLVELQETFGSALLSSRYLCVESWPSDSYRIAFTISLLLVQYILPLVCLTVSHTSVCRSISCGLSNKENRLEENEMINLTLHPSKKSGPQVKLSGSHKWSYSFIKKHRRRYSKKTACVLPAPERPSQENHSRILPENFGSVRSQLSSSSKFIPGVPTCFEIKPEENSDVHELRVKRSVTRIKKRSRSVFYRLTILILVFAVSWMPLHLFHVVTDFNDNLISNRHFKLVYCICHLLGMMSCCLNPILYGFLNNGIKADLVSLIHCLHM

[2] = target: T2, rat NPY Y5 receptor (6B clone) (Rattus norvegicus, UniProt Q63634, L61P); experiment: [125I]PYY competition binding, rat Y5 6B clone transiently expressed in COS-7 membranes; conditions: transient COS-7 membranes, ± SEM, read-out: NPY Y5 binding affinity Ki, RAT 6B Clone
T2 construct: expressed in transfected cells; host or cells: COS-7 (transient), membranes
T2 sequence (Q63634 1-445 L61P): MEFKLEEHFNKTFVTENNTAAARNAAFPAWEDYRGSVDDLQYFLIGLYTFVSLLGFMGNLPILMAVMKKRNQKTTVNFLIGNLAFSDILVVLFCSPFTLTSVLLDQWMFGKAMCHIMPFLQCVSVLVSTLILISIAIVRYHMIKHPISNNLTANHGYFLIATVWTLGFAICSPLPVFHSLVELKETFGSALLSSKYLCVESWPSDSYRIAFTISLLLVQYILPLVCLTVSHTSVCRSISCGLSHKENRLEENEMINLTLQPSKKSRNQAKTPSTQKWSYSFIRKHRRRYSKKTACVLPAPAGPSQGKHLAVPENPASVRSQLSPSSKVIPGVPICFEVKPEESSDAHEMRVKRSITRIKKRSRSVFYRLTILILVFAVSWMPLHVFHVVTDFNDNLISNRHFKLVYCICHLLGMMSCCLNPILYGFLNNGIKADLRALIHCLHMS
Procedure: Cells at 70% confluency were transfected with Y5 DNA using the Lipofectamine method (GIBCO-BRL). 15 μg DNA and 90 μl Lipofectamine were added to each flask. Media was completely replaced 24 hours post transfection, and membranes were harvested 24 hours later.
The media was removed from each flask of transfected cells, and the cells were washed twice with 20 ml ice-cold phosphate buffered saline. The cells were scraped from the flask in 5 ml of Tris buffer (20 mM Tris-HCl and 5 mM EDTA, pH 7.7), and then transferred to a centrifuge tube. Each flask was washed with an additional 5 ml of Tris buffer and combined in the centrifuge tube. The cells were polytroned for 2×10 seconds (12 mm probe, 7000-8000 rpm) and centrifuged 5 minutes (Centra 7R, International Equipment Co., Needham Heights, Mass.) at 800 rpm and 4° C. […] Protein concentration was measured using the Bio-Rad kit pursuant to the standard manufacturer's protocol (Biorad Laboratories, Hercules, Calif.),with bovine IgG as the standard. […]
(§1) After a 2 hour incubation at room temperature with constant mixing, the samples were aspirated on a vacuum manifold. […] The individual wells were punched into 12×75 mm plastic tubes, and counted on a Wallac (Gaithersburg, Md.) gamma counter. Binding data were analyzed using the nonlinear regression curve-fitting program RS/1 (BBN Software Products Corp., Cambridge, Mass.). […]

[3] = target: T3, rat NPY Y5 receptor (Y861 clone) (Rattus norvegicus, UniProt Q63634); experiment: [125I]PYY competition binding, rat Y5 Y861 clone transiently expressed in COS-7 membranes; parameters: expressed in transfected cells; host or cells: COS-7 (transient), membranes; conditions: transient COS-7 membranes, ± SEM, read-out: NPY Y5 binding affinity Ki, RAT Y861 Clone
T3 sequence (Q63634 1-445): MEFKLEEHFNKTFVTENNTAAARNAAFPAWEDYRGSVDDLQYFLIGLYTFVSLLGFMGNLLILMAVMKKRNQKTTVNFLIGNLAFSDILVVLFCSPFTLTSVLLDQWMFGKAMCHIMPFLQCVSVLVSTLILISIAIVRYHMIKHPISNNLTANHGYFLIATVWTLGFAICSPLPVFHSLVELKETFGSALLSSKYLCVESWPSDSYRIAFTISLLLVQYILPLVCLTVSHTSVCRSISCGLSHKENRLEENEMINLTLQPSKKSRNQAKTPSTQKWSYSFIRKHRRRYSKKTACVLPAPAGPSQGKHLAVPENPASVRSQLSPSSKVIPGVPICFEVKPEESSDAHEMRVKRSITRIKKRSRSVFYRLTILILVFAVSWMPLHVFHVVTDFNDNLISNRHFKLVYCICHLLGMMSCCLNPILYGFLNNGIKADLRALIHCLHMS
Procedure: Monkey kidney cells (COS-7) were maintained in T-175 cm^2 flasks (NUNC) at 37° C. with 5% CO2 in a humidified atmosphere. Cells were grown in Dulbecco's Modified Eagle Medium (DMEM) supplemented with 2 mM glutamine, 10% fetal bovine serum, 1 mM sodium pyruvate, and antibiotic/antimycotic. Cells at 70% confluency were transfected with Y5 DNA using the Lipofectamine method (GIBCO-BRL). 15 μg DNA and 90 μl Lipofectamine were added to each flask. Media was completely replaced 24 hours post transfection, and membranes were harvested 24 hours later.
The media was removed from each flask of transfected cells, and the cells were washed twice with 20 ml ice-cold phosphate buffered saline. The cells were scraped from the flask in 5 ml of Tris buffer (20 mM Tris-HCl and 5 mM EDTA, pH 7.7), and then transferred to a centrifuge tube. […] Protein concentration was measured using the Bio-Rad kit pursuant to the standard manufacturer's protocol (Biorad Laboratories, Hercules, Calif.),with bovine IgG as the standard. […]
as §1

[4] = system: food intake of Wistar rats; experiment: In vivo feeding after ICV injection in rats; parameters: species or system rat; conditions: for Feeding: ICV, 1-6 nmoles peptide, chow consumed in 2 hours; for Feeding response in rats (in words): in vivo feeding model
Procedure: Adult male Wistar rats were surgically implanted with a chronic intracerebral ventricular (ICV) cannula (Plastic Products, Roanoke, Va.) using a stereotaxic instrument. Several days after the surgery, 1-6 nmoles of each peptide (or saline) was injected into the lateral ventricle of 4-12 rats in a volume of 5-10 μl. The quantity of rodent chow consumed in a 2 hour period was measured.

Rat Y2 (clone) = target: T4, Rat Y2 (clone) (Rattus norvegicus, UniProt Q9ERC0); experiment: [125I]PYY binding assay for rat Y2 receptor
T4 sequence (Q9ERC0 1-381): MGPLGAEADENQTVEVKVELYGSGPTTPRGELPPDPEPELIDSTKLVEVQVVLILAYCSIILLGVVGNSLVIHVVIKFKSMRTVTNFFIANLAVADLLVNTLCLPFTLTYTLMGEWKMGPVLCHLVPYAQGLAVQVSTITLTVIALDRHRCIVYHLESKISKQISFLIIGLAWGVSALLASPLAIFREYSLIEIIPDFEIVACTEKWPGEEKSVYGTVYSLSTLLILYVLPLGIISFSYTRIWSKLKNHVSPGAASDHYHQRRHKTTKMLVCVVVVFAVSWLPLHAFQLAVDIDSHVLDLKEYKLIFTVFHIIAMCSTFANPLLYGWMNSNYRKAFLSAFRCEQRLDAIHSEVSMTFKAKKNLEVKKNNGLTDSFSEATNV

Rat Y1 (clone) = target: T5, Rat Y1 (clone) (Rattus norvegicus, UniProt P21555); experiment: [125I]PYY binding assay for rat Y1 receptor
T5 sequence (P21555 1-382): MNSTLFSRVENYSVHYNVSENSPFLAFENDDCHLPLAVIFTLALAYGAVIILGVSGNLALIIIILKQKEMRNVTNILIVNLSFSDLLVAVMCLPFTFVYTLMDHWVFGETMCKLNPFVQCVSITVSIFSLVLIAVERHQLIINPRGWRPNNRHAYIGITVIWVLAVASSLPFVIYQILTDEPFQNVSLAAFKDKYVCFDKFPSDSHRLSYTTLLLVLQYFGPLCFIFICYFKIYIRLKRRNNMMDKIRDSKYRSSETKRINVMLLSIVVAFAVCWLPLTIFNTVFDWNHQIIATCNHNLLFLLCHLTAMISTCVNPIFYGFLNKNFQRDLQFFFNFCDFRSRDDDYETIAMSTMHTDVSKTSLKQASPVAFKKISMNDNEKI

[5] = target: T6, rat NPY Y5 receptor, Y861 clone (rat, UniProt Q63634 1-445); experiment: [125I]PYY competition, membranes of stable 293S clone 293S.Y861.2
T6 sequence: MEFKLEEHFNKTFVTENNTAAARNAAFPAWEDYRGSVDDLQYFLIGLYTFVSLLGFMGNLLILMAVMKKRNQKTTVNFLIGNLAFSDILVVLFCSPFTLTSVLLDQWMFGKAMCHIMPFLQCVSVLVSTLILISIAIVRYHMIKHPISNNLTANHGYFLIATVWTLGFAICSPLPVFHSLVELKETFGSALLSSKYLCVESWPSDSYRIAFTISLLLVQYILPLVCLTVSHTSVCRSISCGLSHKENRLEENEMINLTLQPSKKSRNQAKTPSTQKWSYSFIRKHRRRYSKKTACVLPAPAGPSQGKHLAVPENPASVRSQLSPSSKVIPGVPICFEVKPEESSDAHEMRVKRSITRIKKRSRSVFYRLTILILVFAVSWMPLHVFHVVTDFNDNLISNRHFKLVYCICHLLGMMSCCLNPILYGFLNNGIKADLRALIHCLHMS

human NPY Y5 receptor [6] = target: T7, human NPY Y5 receptor (human, UniProt Q15761 1-445); experiment: [125I]PYY competition, membranes of stable 293 clone 293.hY5.sb.8
T7 construct: also called HUMAN Clone
T7 sequence: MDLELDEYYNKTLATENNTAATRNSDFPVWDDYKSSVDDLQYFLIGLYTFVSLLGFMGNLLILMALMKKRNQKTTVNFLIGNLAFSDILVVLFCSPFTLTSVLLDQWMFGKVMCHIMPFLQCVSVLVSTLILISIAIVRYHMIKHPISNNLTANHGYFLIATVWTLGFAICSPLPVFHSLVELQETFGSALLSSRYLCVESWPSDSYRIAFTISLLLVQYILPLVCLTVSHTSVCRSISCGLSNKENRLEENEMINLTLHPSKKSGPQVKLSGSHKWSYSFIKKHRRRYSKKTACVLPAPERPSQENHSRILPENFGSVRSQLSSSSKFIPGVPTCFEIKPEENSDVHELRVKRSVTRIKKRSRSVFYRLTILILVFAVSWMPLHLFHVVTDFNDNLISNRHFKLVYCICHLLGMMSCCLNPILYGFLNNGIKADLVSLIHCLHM

[7] = target: T6, rat NPY Y5 receptor, Y861 clone; experiment: cell-based or functional assay
human NPY Y5 receptor [8] = target: T7, human NPY Y5 receptor; experiment: [125I]PYY competition, membranes of transiently transfected COS-7 cells; individual experiment
Procedure: The binding assays were performed on GF/C Millipore (Bedford, Mass.) 96-well plates pretreated with 0.02% polyethylenimine (PEI) for at least 2 hours prior to use. The PEI was aspirated from the plates on a vacuum manifold immediately before the samples were added to the wells. All peptides, tissue and radioligand were diluted with binding buffer (25 mM Tris, 120 mM NaCl, 5 mM KCl, 1.2 MM KH₂PO₄, 2.5 mM CaCl₂, 1.2 mM MgSO₄, 0.1% BSA and 0.5 mg/ml bacitracin, pH 7.4).
After a 2 hour incubation at room temperature with constant mixing, the samples were aspirated on a vacuum manifold. The wells were washed with three 200 μl aliquots of ice-cold binding buffer. The individual wells were punched into 12×75 mm plastic tubes, and counted on a Wallac (Gaithersburg, Md.) gamma counter. Binding data were analyzed using the nonlinear regression curve-fitting program RS/1 (BBN Software Products Corp., Cambridge, Mass.).
Each point is the average value of triplicate determinations from a representative experiment. […] Kᵢ values were calculated from the IC₅₀ values using the Cheng-Prusoff correction, such that Kᵢ=IC₅₀/(1±(L/Kd)), where L is the radioligand concentration and Kd is the dissociation constant.

## NC(N)=NCCC[C@@H](NC(=O)C(c1ccccc1)c1ccccc1)C(=O)NCc1ccc(O)cc1 [BIBP3226]
Human NPY Y5 receptor [1]
  Ki: > 1 µM
[2]
  Ki: > 1 µM
[3]
  Ki: > 1 µM

## (2-36)NPY [r/h(2-36)NPY]
[4]
  Feeding: >5 g/2 h

## (3-36)NPY [p(3-36)NPY]
Rat Y2 (clone)
  Affinity for Y2 receptor (in words): binds preferentially
Rat Y1 (clone)
  Affinity for Y1 receptor (in words): much weaker
[4]
  Feeding: >5 g/2 h
  Feeding response in rats (in words): stimulate feeding

## (10-36)NPY [r/h(10-36)NPY]
[4]
  Feeding: <3 g/2 h

## (13-36)PYY (peptide)
[5]
  Ki: 0.029 µM
Human NPY Y5 receptor [6]
  Ki: 0.024 µM

## (18-36)NPY [p(18-36)NPY]
[4]
  Feeding: <3 g/2 h

## (20-36)NPY [r/h(20-36)NPY]
[4]
  Feeding: <3 g/2 h
  Feeding response in rats (in words): do not elicit feeding

## (22-36)NPY [r/h(22-36)NPY]
[4]
  Feeding: <3 g/2 h

## (26-36)NPY [r/h(26-36)NPY]
[4]
  Feeding: <3 g/2 h

## (Leu^31Pro^34)(3-36)NPY [(LP)(3-36)NPY]
[4]
  Feeding: >5 g/2 h
  Feeding response in rats (in words): stimulates feeding

## (Leu^31Pro^34)NPY [p(LP)NPY]
[4]
  Feeding: >5 g/2 h
  Feeding response in rats (in words): stimulate feeding

## (Leu^31Pro^34)PYY [h(LP)PYY]
[4]
  Feeding: >5 g/2 h

## Neuropeptide Y [r/hNPY]
[4]
  Feeding: >5 g/2 h

## APLEPVYPGDNATPEQMAQYAADLRRYINMLTRPRY (peptide, UniProt P01298 30-65, looked up) [hPP (human pancreatic polypeptide)]
[7]
  EC50, forskolin-stimulated adenylate cyclase (cAMP), 293S.Y861.2 cells: 0.001 µM

B1: r(13-36)NPY (peptide, UniProt P07808 42-65, looked up)
peptide: PAEDMARYYSALRHYINLITRQRY
modifications: ends and bridges not checked
notes: range 13-36; it may be a misprint for r(13-36)PYY (rat NPY is elsewhere written r/h)
Human NPY Y5 receptor [8]
  Ki: 0.089 µM and 0.065 µM
